This passage reports Emax, EC50 and Ki results from US9656962B2, “Ring-contracted morphinans and the use thereof” (Purdue Pharma L.P., priority 2013, dated 2017).

Test [1] deals with T1, κ-opioid receptor (Homo sapiens (Human), UniProt P41145). Kind of test: κ-opioid receptor [35S]GTPγS functional assay, HEK-293 or CHO cells (Table 4). Type of test: biochemical. To be noted: for Emax: relative to U69,593; for EC50: κ GTP. On the procedure:
(§1) κ-Opioid Receptor Functional Assay Procedures: Functional [^35S]GTPγS binding assays were conducted as follows. κ opioid receptor membrane solution was prepared by sequentially adding final concentrations of 0.026 μg/μl κ membrane protein (in-house), 10 μg/mL saponin, 3 μM GDP and 0.20 nM [^35S]GTPγS to binding buffer (100 mM NaCl, 10 mM MgCl2, 20 mM HEPES, pH 7.4) on ice. The prepared membrane solution (190 μl/well) was transferred to 96-shallow well polypropylene plates containing 10 μl of 20× concentrated stock solutions of agonist prepared in DMSO. Plates were incubated for 30 min at a temperature of about 25° C. with shaking. Reactions were terminated by rapid filtration onto 96-well Unifilter GF/B filter plates (Perkin Elmer, Shelton, Conn.) using a 96-well tissue harvester (Packard) and followed by three filtration washes with 200 μl ice-cold binding buffer (10 mM NaH2PO4, 10 mM Na2HPO4, pH 7.4). Filter plates were subsequently dried at 50° C. for 2-3 hours. Fifty μl/well scintillation cocktail (Perkin Elmer, Shelton, Conn.) was added and plates were counted in a Packard Top-Count for 1 min/well.
κ GTP Emax (%) is the maximal effect elicited by a compound relative to the effect elicited by U69,593.
In TABLE 4, activity response of certain Compounds of the Invention to the μ- and κ-opioid receptors was determined as described above for functional assays using HEK-293 or CHO cells.

For test [2], the target named is human opioid receptor-like receptor (ORL-1) (Homo sapiens (Human), UniProt P41146). Kind of test: ORL-1 receptor radioligand binding assay ([3H]-nociceptin). To be noted: binding affinity, read-out: Ki (nM) ORL-1. On the procedure: ORL-1 Receptor Binding Assay Procedure: Membranes from recombinant HEK-293 cells expressing the human opioid receptor-like receptor (ORL-1) (Perkin Elmer, Shelton, Conn.) was prepared by lysing cells in ice-cold hypotonic buffer (2.5 mM MgCl2, 50 mM HEPES, pH 7.4) (10 ml/10 cm dish) followed by homogenization with a tissue grinder/Teflon pestle. Membranes were collected by centrifugation at 30,000×g for 15 min at 4° C. and pellets resuspended in hypotonic buffer to a final concentration of 1-3 mg/ml. Protein concentrations were determined using the BioRad protein assay reagent with bovine serum albumen as standard. Aliquots of the ORL-1 receptor membranes were stored at −80° C.
Radioligand binding assays (screening and dose-displacement) use 0.1 nM [^3H]-nociceptin (Perkin Elmer, Shelton, Conn.; 87.7 Ci/mmole) with 12 μg membrane protein in a final volume of 500 μl binding buffer (10 mM MgCl2, 1 mM EDTA, 5% DMSO, 50 mM HEPES, pH 7.4). Non-specific binding was determined in the presence of […] unlabeled nociceptin (American Peptide Company). […] Fifty μl/well scintillation cocktail (Perkin Elmer, Shelton, Conn.) was added and plates are counted in a Packard Top-Count for 1 min/well. The data from screening and dose-displacement experiments were analyzed using Microsoft Excel and the curve fitting functions in GraphPad PRISM™, v. […]

Test [3] concerns the target T1, κ-opioid receptor. Kind of test: κ-opioid receptor [35S]GTPγS functional assay, U-2 OS cells (Table 5). To be noted: for Emax: relative to U69,593; for EC50: κ GTP. Type of test: biochemical. The method, boiled down:
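[35S]GTPγS binding in κ receptor membranes (0.026 μg/μl protein) with 10 μg/mL saponin, 3 μM GDP and 0.20 nM [35S]GTPγS in pH 7.4 HEPES/NaCl/MgCl2 buffer. Agonist incubation lasted 30 min at about 25 °C, followed by filtration and scintillation counting. Emax is expressed relative to U69,593.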

The target in test [4] is recombinant human kappa opioid receptor (κ) (Homo sapiens (Human), UniProt P41145). Kind of test: κ-opioid receptor radioligand binding assay ([3H]-U69,593). To be noted: binding affinity. On the procedure: κ-Opioid Receptor Binding Assay Procedures: Membranes from HEK-293 cells, CHO cells or U-2 OS cells expressing the recombinant human kappa opioid receptor (κ) were prepared by lysing cells in ice cold hypotonic buffer (2.5 mM MgCl2, 50 mM HEPES, pH 7.4) (10 mL/10 cm dish) followed by homogenization with a tissue grinder/Teflon pestle. Membranes from a cell line naturally expressing kappa opioid receptor can also be used. Membranes were collected by centrifugation at 30,000×g for 15 min at 4° C. and pellets were resuspended in hypotonic buffer to a final concentration of 1-3 mg/mL. Protein concentrations were determined using the BioRad protein assay reagent with bovine serum albumen as standard. Aliquots of κ receptor membranes were stored at −80° C.
Radioligand dose displacement assays used 0.4 nM [^3H]-U69,593 (GE Healthcare, Piscataway, N.J.; 40 Ci/mmole) with 15 μg membrane protein (recombinant opioid receptor expressed in HEK 293 cells; in-house prep) in a final volume of 200 μl binding buffer (5% DMSO, 50 mM Trizma base, pH 7.4). Non-specific binding was determined in the presence of 10 μM unlabeled naloxone or U69,593. All reactions were performed in 96-well polypropylene plates for 1 hour at a temperature of about 25° C. Binding reactions were terminated by rapid filtration onto 96-well Unifilter GF/C filter plates (Perkin Elmer, Shelton, Conn.) presoaked in 0.5% polyethylenimine (Sigma). Harvesting was performed using a 96-well tissue harvester (Perkin Elmer, Shelton, Conn.) followed by five filtration washes with 200 μl ice-cold binding buffer. Filter plates were subsequently dried at 50° C. for 1-2 hours. Fifty μl/well scintillation cocktail (Perkin Elmer, Shelton, Conn.) was added and plates were counted in a Packard Top-Count for 1 min/well.

The target in test [5] is T2, μ-opioid receptor (Homo sapiens (Human), UniProt P35372). Kind of test: μ-opioid receptor [35S]GTPγS functional assay, HEK-293 or CHO cells (Table 4). The conditions noted are these: for Emax: relative to DAMGO; for EC50: μ GTP. The class given is biochemical. In short, it runs like this:
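Membranes from HEK-293, CHO or U-2 OS cells (or commercial) expressing recombinant μ receptor; 0.20 nM [35S]GTPγS, 3 mM GDP, saponin, in 100 mM NaCl/10 mM MgCl2/20 mM HEPES pH 7.4.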

Test [6] has as its target T2, μ-opioid receptor. Description: μ-opioid receptor [35S]GTPγS functional assay, U-2 OS cells (Table 5). The conditions noted are these: for Emax: relative to DAMGO; for EC50: μ GTP. The class given is biochemical. The method, boiled down:
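Membranes (0.026 mg/mL) from cells expressing recombinant human μ-opioid receptor in a U-2 OS background were incubated with 0.20 nM [35S]GTPγS, 3 mM GDP and saponin in 20 mM HEPES pH 7.4, 100 mM NaCl, 10 mM MgCl2 for 30 min at about 25 °C. Filter-bound radioactivity counted; sigmoidal dose-response fits gave values, Emax relative to DAMGO.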

A further test has as its target δ-opioid receptor (Homo sapiens (Human), UniProt P41143). Description: δ-opioid receptor [35S]GTPγS functional assay (Table 4). The class given is biochemical. The method, then: as §1, with “δ-Opioid” for “κ-Opioid”, “δ” for “κ”, “(Perkin Elmer, Shelton, Conn.),” for “(in-house),”, “shaking” for “shaking.”, “1-2” for “2-3”, “Top-count” for “Top-Count”
δ GTP Emax (%) is the maximal effect elicited by a compound relative to the effect elicited by met-enkephalin.

In test [7] the target is T2, μ-opioid receptor. Kind of test: μ-opioid receptor radioligand binding assay ([3H]-diprenorphine). To be noted: binding affinity. On the procedure: μ-Opioid Receptor Binding Assay Procedures: Radioligand dose-displacement binding assays for μ-opioid receptors used 0.3 nM [^3H]-diprenorphine (Perkin Elmer, Shelton, Conn.), with […] membrane protein/well in a final volume of 500 μl binding buffer (10 mM MgCl2, 1 mM EDTA, 5% DMSO, 50 mM HEPES, pH 7.4). Reactions were carried out in the absence or presence of increasing concentrations of unlabeled naloxone. All reactions were conducted in 96-deep well polypropylene plates for 2 hours at room temperature. Binding reactions were terminated by rapid filtration onto 96-well Unifilter GF/C filter plates (Perkin Elmer, Shelton, Conn.), presoaked in 0.5% polyethylenimine using a 96-well tissue harvester (Perkin Elmer, Shelton, Conn.) followed by performing three filtration washes with 500 μl of ice-cold binding buffer. Filter plates were subsequently dried at 50° C. for 2-3 hours. BetaScint scintillation cocktail (Perkin Elmer, Shelton, Conn.) was added (50 μl/well), and plates were counted using a Packard Top-Count for 1 min/well. The data were analyzed using the one-site competition curve fitting functions in GraphPad PRISM™ v. 3.0 or higher (San Diego, Calif.), or an in-house function for one-site competition curve-fitting.

Chain of δ-opioid receptor (P41143 whole entry, looked up): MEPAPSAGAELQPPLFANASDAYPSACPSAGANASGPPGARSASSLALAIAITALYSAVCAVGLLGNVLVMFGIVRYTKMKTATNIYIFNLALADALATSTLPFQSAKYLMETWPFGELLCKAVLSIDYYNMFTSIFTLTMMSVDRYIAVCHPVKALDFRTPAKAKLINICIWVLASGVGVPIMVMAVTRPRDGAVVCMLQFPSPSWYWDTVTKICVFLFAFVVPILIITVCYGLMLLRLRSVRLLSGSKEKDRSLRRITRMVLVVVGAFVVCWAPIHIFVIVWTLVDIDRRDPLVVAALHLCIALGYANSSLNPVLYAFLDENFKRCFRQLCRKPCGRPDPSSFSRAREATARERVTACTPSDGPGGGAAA

Regarding `N=C(N)NCCNC(=O)[C@@H]1C[C@]23CCN(CC4CC4)[C@H](Cc4ccc(O)cc42)[C@]3(O)C1` [Compound 6, (2R,3aS,4R,9bS)-12-(cyclopropylmethyl)-N-(2-guanidinoethyl)-3a,8-dihydroxy-1,2,3,3a,4,5-hexahydro-4,9b-(epimino-ethano)cyclopenta[a]naphthalene-2-carboxamide], the Emax was 48.6 ± 0.98% on κ-opioid receptor [1], 98 ± 3.21% on κ-opioid receptor [3], 0% on μ-opioid receptor [5] and 57 ± 2.08% on μ-opioid receptor [6]. The figures for the concentration giving a half-maximal response (EC50) on κ-opioid receptor [1] and at κ-opioid receptor [3] were 0.86 ± 0.16 nM and 0.87 ± 0.16 nM, respectively. In addition, the Ki in test [2] is 10300 ± 2140 nM; in test [4], 0.098 ± 0.032 nM.

As for `Cc1ccc(CNC(=O)[C@H]2C[C@]34CCN(CC5CC5)[C@H](Cc5ccc(O)cc53)[C@]4(O)C2)cc1` [Compound 38, (2S,3aS,4R,9bS)-12-(cyclopropylmethyl)-3a,8-dihydroxy-N-(4-methylbenzyl)-1,2,3,3a,4,5-hexahydro-4,9b-(epiminoethano)cyclopenta[a]naphthalene-2-carboxamide], the maximal response (Emax) at δ-opioid receptor (relative to met-enkephalin) was 50.1 ± 1.25%; on κ-opioid receptor [1], 96.3 ± 3.18%; on κ-opioid receptor [3], 105 ± 3.18%; at μ-opioid receptor [5], 56.5 ± 2.6%; at μ-opioid receptor [6], 77.7 ± 2.4%. For the same compound, the half-maximal effective concentration (EC50) on δ-opioid receptor (δ GTP) worked out at 1.56 ± 0.055 nM; on κ-opioid receptor [1], 0.43 ± 0.048 nM; on κ-opioid receptor [3] it was 0.065 ± 0.01 nM; on μ-opioid receptor [5], 0.00062 ± 0.00012 µM; at μ-opioid receptor [6], 0.25 ± 0.024 nM. Also, the Ki in test [4] was found to be 0.16 ± 0.044 nM.

On to `O=C(NCc1ccc(O)cc1O)[C@H]1C[C@]23CCN(CC4CC4)[C@H](Cc4ccc(O)cc42)[C@]3(O)C1` [Compound 42, (2S,3aS,4R,9bS)-12-(cyclopropylmethyl)-N-(2,4-dihydroxybenzyl)-3a,8-dihydroxy-1,2,3,3a,4,5-hexahydro-4,9b-(epimino-ethano)cyclopenta[a]naphthalene-2-carboxamide], for which the Emax on κ-opioid receptor [1] came to 98.3 ± 1.33%; on κ-opioid receptor [3] it was 87.7 ± 4.63%; at μ-opioid receptor [5], 1%; at μ-opioid receptor [6], 35 ± 1.15%. The EC50 at κ-opioid receptor [1] was 0.32 ± 0.059 nM; at κ-opioid receptor [3], 1.27 ± 0.076 nM; on μ-opioid receptor [5] (bound given in μM) it was over 20 µM; on μ-opioid receptor [6] it was 1.33 ± 0.12 nM. In addition, the values for the Ki (in test [4]; at μ-opioid receptor [7]) were 0.37 ± 0.13 nM and 0.4 ± 0.024 nM, respectively.

Regarding `O=C(NCc1ccccc1)[C@@H]1C[C@]23CCN(CC4CC4)[C@H](Cc4ccc(O)cc42)[C@]3(O)C1` [Compound 33, (2R,3aS,4R,9bS)-N-benzyl-12-(cyclopropylmethyl)-3a,8-dihydroxy-1,2,3,3a,4,5-hexahydro-4,9b-(epiminoethano)cyclopenta[a]naphthalene-2-carboxamide], the Emax on κ-opioid receptor [1] was 43.3 ± 0.33%; on κ-opioid receptor [3] it was 103 ± 3.48%; at μ-opioid receptor [5] it was 1%; on μ-opioid receptor [6], 45.7 ± 0.67%. The EC50 on κ-opioid receptor [1] is 7.03 ± 0.82 nM; at κ-opioid receptor [3], 3.18 ± 0.46 nM; on μ-opioid receptor [5] (bound given in μM), over 20 µM; on μ-opioid receptor [6], 3.84 ± 0.21 nM. The Ki in test [4] is 0.75 ± 0.13 nM; at μ-opioid receptor [7], 1.39 ± 0.082 nM.
